Assay results published in patent US11154564B2, “Composition for cough” (Aboca S.p.A. Società Agricola, priority 2017, dated 2021).

How the values were obtained:
[1] = tested on: human keratocytes; test: Scavenger-type anti-oxidizing activity assay (DCA probe, H2O2 oxidative stress); type: cell-based; details: 0.05 mg/ml
Description: Assessment of anti-oxidizing activity of the sample on human cells exposed to chemical-type progressive oxidative stress. The assessment of anti-oxidizing action is obtained from quantification of free radical formation in cells exposed to the sample and to oxidative stress. The method applied is based on the use of the fluorimetric probe 2,7 dichlorofluorescein acetate-DCA-: this probe penetrates into cells, binds to cell membrane proteins and macromolecules. In this form, the probe is not fluorescent, only becoming fluorescent when oxidized by free radicals. Cells pretreated with DCA are exposed to the various dilutions of the sample and hydrogen peroxide. […] Starting from this mother solution, the first dilution was prepared at a concentration of 0.5 mg/ml in saline; therefrom, by applying a 1:2 dilution factor, the other four dilutions were obtained. Positive Control: cells exposed to the 500 μM H2O2 solution. Internal Control: cells exposed to an ascorbic acid solution (0.05 mg/ml). Negative Control: cells exposed to the inoculation medium. The assay was performed on a simple cell model consisting of a monolayer of stabilized human keratocytes (cells were purchased from IZSLER and are guaranteed as free from any viral/bacterial contamination and/or from mycoplasma). […] The same procedure was carried out to obtain the same five dilutions in a 500 μM H2O2 solution in saline. 150 μl per each dilution (in saline and in H2O2) were distributed into four wells on two different plates. Cultured cells were enzymatically detached from the growth medium and counted with an electronic cell counter (Scepter); a cell suspension was prepared (in inoculation medium) at the density of 300,000 cells/ml, which were then distributed into 96-well plates: 100 μl per well, obtaining a seeding density of 30,000 cells per well. Lastly, the plates were placed back to culture in an incubator at 37° C. and 5% CO2-enriched humid atmosphere for the subsequent 24 hours. The inoculation medium was removed, cells were washed once with PBS, then PBS was discarded and 150 μl DCA (4 μM) was distributed in both plates. Then, the plates were placed back in incubator at 37° C. and 5% CO2-enriched atmosphere for 15 minutes. At the end of the DCA incubation period, the solution was removed, and cells were washed once with PBS, then 150 μl of the above-described dilutions of the sample and of the controls were distributed in the plates. Then, free radical formation was measured from T0 (right after inoculation into the two plates) every 20 minutes, up to 100 minutes (5 measurements) with a fluorimeter. At the end of the measurements, after the 100 minutes, the inoculate of both plates was removed and Neutral Red Uptake vitality assay was performed. F.U.: fluorescence unit F.U. positive control: average of F.U. emitted from cells exposed to the H2O2 solution (maximum production of free radicals) F.U. negative control: average of F.U. emitted from cells not exposed to oxidative stress At each time interval of exposure ([NT]5) there were carried out: the average of F.U. emitted from cells exposed to the sample, to vitamin C without oxidative stress, is subtracted from the average of F.U. emitted from cells exposed to the sample, to vitamin C and oxidative stress. In other words, the average values of fluorescence emitted from the non-stressed plate were subtracted from the average values of fluorescence emitted from the stressed plate. […]: cells exposed to the sole sample F.U. Controlpos: cells exposed to the sole oxidative stress F.U. Controlneg: cells exposed to saline without oxidative stress

[2] = Stability of the composition (total tannins as pyrogallol, EP 9.2, 2.8.14); type: physicochemical; details: fluid form (syrup), 40° C. and 75% of relative humidity, six months
Method: The stability of the composition of the invention in fluid form (syrup, as per examples above, at 2) with regard to tannins was assessed by measuring the content of total tannins, expressed as pyrogallol, by means of spectrophotometric method described in European Pharmacopoeia (EP 9.2, 2.8.14) for agrimony.

SMILES: O=C1O[C@H]([C@@H](O)CO)C(O)=C1O [Vit. C, Ascorbic acid]
- % PROTECTION FROM FREE RADICALS ([1]; 20 MIN, 500 μM H2O2): 57%
- FREE RADICAL DEVELOPMENT ([1]; 20 MIN, 500 μM H2O2): 5993
- % PROTECTION FROM FREE RADICALS ([1]; 40 MIN, 500 μM H2O2): 60%
- FREE RADICAL DEVELOPMENT ([1]; 40 MIN, 500 μM H2O2): 5721
- % PROTECTION FROM FREE RADICALS ([1]; 60 MIN, 500 μM H2O2): 60%
- FREE RADICAL DEVELOPMENT ([1]; 60 MIN, 500 μM H2O2): 5240
- % PROTECTION FROM FREE RADICALS ([1]; 80 MIN, 500 μM H2O2): 63%
- FREE RADICAL DEVELOPMENT ([1]; 80 MIN, 500 μM H2O2): 4802
- % PROTECTION FROM FREE RADICALS ([1]; 100 MIN, 500 μM H2O2): 61%
- FREE RADICAL DEVELOPMENT ([1]; 100 MIN, 500 μM H2O2): 4937
- % PROTECTION FROM FREE RADICALS ([1]; T0, 500 μM H2O2): 45%
- FREE RADICAL DEVELOPMENT ([1]; T0, 500 μM H2O2): 5654
- stability in fluid form ([2]; listed as Vitamin C): did not exhibit stability beyond T0
- stability in fluid form ([2]; listed as vitamin C): markedly unstable
